Here are results for two compounds from patent US20180353461A1, “USE OF CANNABINOIDS AS CERAMIDE-GENERATING ANTICANCER AGENTS IN TUMORS OF THE HEMATOPOIETIC AND LYMPHOID TISSUES” (priority 2014, published 2018).

The test system of one data set is blasts from AML patients. In words: Cell viability of blasts from AML patients (MTT). The class given is cell-based, human.
Another data set has as its system lymphocytes. In words: Viability of normal residual lymphocytes in bone marrow samples of MM patients (flow cytometry). It counts as cell-based, human. To be noted: for viability of lymphocytes: all doses except the highest dose tested; for dose at which lymphocytes were affected (highest dose tested): bone marrow of MM patients. An excerpt:
(§1) Human multiple myeloma cell lines MM1.S, MM1.R, RPMI-8226 (RPMI) and U266 were purchased from American Type Culture Collection [(ATCC), LGC Standards, Manassas, USA]. Human primary cells were obtained from MM patients' bone marrow (BM) and healthy donors' peripheral blood (PB). PB samples were collected from buffy coats and leukapheresis products, previously mobilized with granulocyte colony stimulating factor (G-CSF). Hematopoietic progenitor cells (CD34+) were isolated from leukaphesesis samples, and B (CD19+) and T (CD3+) lymphocytes from buffy coats by positive immunomagnetic separation in the AutoMACS pro separator (Miltenyi Biotec, Bergisch Gladbach, Germany). For this purpose CD34-, CD19- and CD3-MACS microbead Human Kit (Miltenyi Biotec, Bergisch Gladbach, Germany). The purity of all isolated cells was higher than 95% in all cases. BM samples were obtained from five MM patients. In all cases, BM plasma cell infiltration was greater than 30%. The different cell subpopuplations from MM patients BM were not separated, but they were identified by flow cytometry using a suitable combination of antibodies: anti-CD64-FITC, anti-CD34-PE, anti-CD56-APC, anti-CD38-APC-H7, and anti-CD45-Pacific Blue (BD Biosciences, San Jose, Calif.).
Further, cell viability of bone marrow cell populations from patients was assessed by flow cytometry using 7-amino-actinomycin D [(7-AAD), BD Biosciences] together with a combination of monoclonal antibodies against myeloma-associated antigens (anti-CD56-APC, anti-CD45-Pacific Blue, and anti-CD38-APC-H7 [BD Biosciences]) and antibodies to discriminate the granulomonocytic (anti-CD64-FITC) and lymphocytic (anti-CD45-Pacific Blue) populations. Cells were incubated for 15 minutes at room temperature in the dark with suitable antibodies and 7-AAD, and after washing a total of 100 000 cells were acquired on FACSCanto II flow cytometer (BD Biosciences). Fluorescent intensity was quantified and analyzed using Infinicyt™ Software (Cytognos, Salamanca, Spain). Additionally, cell viability of MM cell lines and the peripheral blood CD34+, CD3+ and CD19+ cell populations from healthy donors was also analyzed by flow cytometry using 7-AAD, with the same protocol above described.
Once determined the antiproliferative effect of cannabinoids on tumor cells, both primary and cell lines, our aim was to test whether or not these drugs could also affect the viability of the counterpart normal cells, both normal residual populations from bone marrow samples obtained from MM patients as well as hematopoietic stem cells (CD34+) from healthy donors. […] Granulocytes and lymphocytes, were also unaffected by both cannabinoids, except for the lymphocytes at the highest doses tested, 50 uM for WIN-55 and 1 mM for JWH-133 (FIG. 2a,b).

Data set [1] relates to KG1 (acute myelogenous leukemia) and HL60 (Human promyelocytic leukemia cells) cell lines. In words: Cell viability of AML cell lines (MTT / WST-1 assay). It counts as cell-based. To be noted: for cell viability of KG1 and HL60 cell lines as compared to untreated control cells: WIN-55 0.5-50 uM, JWH-133 0.05-1 mM; for concentration from which the cell viability decrease occurs with statistically significant data: FIG. 12 / FIG. 13. Here is the method: Human acute myeloid leukemia cell line KG-1 and human acute promyelocytic leukemia cell line HL60 (American Type Culture Collection) were cultured RPMI 1640 medium (Gibco™, Invitrogen, Barcelona, Spain) with 2 mM L-glutamine, 100 IU/m1 penicillin and 100 ug/ml streptomycin (all from Sigma-Aldrich, St. Louis, Mo., USA), and supplemented with 10% (HL60 cell line) or 20% (KG1 cell line and human primary cells) fetal bovine serum [(FBS), [Thermo Fisher Scientific (Waltham, Mass., USA)] in a humidified atmosphere of CO2/air (5%/95%).
The cannabinoid agonists WIN-55,212-2 mesylate ((R)-(+)-[2,3-dihydro-5-methyl-3-(4-morpholinylmethyl)-pyrrolo-[1,2,3]-1,4-benzoxazin-6-yl]-1-naphthalenylmethanone mesylate) and JWH-133 ((6aR,10aR)-3-(1,1-Dimethylbutyl)-6a,7,10,10a-tetrahydro-6,6,9-trimethyl-6H-dibenzo [b,d] pyran) were purchased from Tocris Bioscience (Bristol, UK) and they was added in the indicated concentrations to culture medium for different incubation periods. Control cells were cultured with the relevant amounts of DMSO.
Cells lines, CD34+ cells and blast were cultured in 96-well plates (5×10e5 cells per well) with the addition of the indicated concentrations of WIN 55,212-2 or JWH-133 in DMSO or with the solvent alone in triplicate. Also we add myoricin together the cannabinoid WIN-55 to see if this effect reversed. Cell viability was determined by the WST-1 [2-(4-lodophenyl)-3-(4-nitrophenyl)-5-(2,4-disulfophenyl)-2H-tetrazolium] assay as per the manufacturer's instructions (Dojindo Molecular Technologies). Optical densities were measured at 450 nm using a plate reader Multiskan™ Go Microplate (Thermo Fisher Scientific, Waltham, Mass., USA).
Firstly, we assessed the effect of cannabinoids WIN-55 and JWH-133 on cell viability. To this end, the cells were treated with increasing concentrations of cannabinoids, WIN-55 (0.5-50 uM) and JWH-133 (0.05-1 mM), for 18 and 48, and viability was analyzed by MTT assays.
(In general: Tetrazolium assays rely on reduction of a dye to a coloured formazan, in cell work by metabolically active cells.)

A further data set concerns Granulocytes. In words: Viability of normal residual granulocytes in bone marrow samples of MM patients (flow cytometry). It counts as cell-based, human. The note with it: all doses tested.
Text: as §1, with “BM samples were obtained from five MM patients. In all cases, BM plasma cell infiltration was greater than 30%. The different cell subpopuplations from MM patients BM were not separated, but they were identified by flow cytometry using a suitable combination of antibodies: anti-CD64-FITC, anti-CD34-PE, anti-CD56-APC, anti-CD38-APC-H7, and anti-CD45-Pacific Blue (BD Biosciences, San Jose, Calif.).” left out
(§2) Further, cell viability of bone marrow cell populations from patients was assessed by flow cytometry using 7-amino-actinomycin D [(7-AAD), BD Biosciences] together with a combination of monoclonal antibodies against myeloma-associated antigens (anti-CD56-APC, anti-CD45-Pacific Blue, and anti-CD38-APC-H7 [BD Biosciences]) and antibodies to discriminate the granulomonocytic (anti-CD64-FITC) and lymphocytic (anti-CD45-Pacific Blue) populations. […] Fluorescent intensity was quantified and analyzed using Infinicyt™ Software (Cytognos, Salamanca, Spain). […]
On the technique in general: A flow cytometer gives signals particle by particle.

The subject of data set [2] is myeloma plasma cells (MPCs). In words: Ex vivo viability of myeloma plasma cells from bone marrow of MM patients (flow cytometry, 7-AAD). The class given is cell-based, human.
Text: as §1, with “BM samples were obtained from five MM patients. In all cases, BM plasma cell infiltration was greater than 30%. The different cell subpopuplations from MM patients BM were not separated, but they were identified by flow cytometry using a suitable combination of antibodies: anti-CD64-FITC, anti-CD34-PE, anti-CD56-APC, anti-CD38-APC-H7, and anti-CD45-Pacific Blue (BD Biosciences, San Jose, Calif.).” left out
as §2

The subject of data set [3] is hematopoietic stem cells (CD34+). In words: Cell viability of CD34+ hematopoietic stem cells from healthy donors (MTT). It counts as cell-based, human. The note with it: any tested dose.

Where only a bound is given, the exact number is not on record here.

On to `CCCC(C)(C)c1ccc2c(c1)OC(C)(C)[C@@H]1CC=C(C)C[C@@H]21` [JWH-133, (6aR,10aR)-3-(1,1-Dimethylbutyl)-6a,7,10,10a-tetrahydro-6,6,9-trimethyl-6H-dibenzo [b,d] pyran], for which, in the data set on blasts from AML patients, the “cell viability of blasts from AML patients” value is listed as “reduce the cell viability”. In addition, in the data set with lymphocytes, the viability of lymphocytes entry is reported as “unaffected” and the “dose at which lymphocytes were affected (highest dose tested)” value came to 1 mM. In addition, the “cell viability of KG1 and HL60 cell lines as compared to untreated control cells” value in data set [1] (18 h) is listed as “significantly reduced”. The “concentration from which the cell viability decrease occurs with statistically significant data” value in data set [1] was no less than 500 µM. Besides, in the data set with Granulocytes, the viability of granulocytes entry is recorded as “unaffected”. For the same compound, the “viability of MPCs” value in data set [2] (less pronounced as compared to WIN-55) is on record as “decreased viability”. Further, the “cell viability of hematopoietic stem cells (CD34+)” value in data set [3] was “remained unaffected”.
With `CS(=O)(=O)O.Cc1c(C(=O)c2cccc3ccccc23)c2cccc3c2n1[C@H](CN1CCOCC1)CO3` [WIN-55, (R)-(+)-[2,3-dihydro-5-methyl-3-(4-morpholinylmethyl)-pyrrolo-[1,2,3]-1,4-benzoxazin-6-yl]-1-naphthalenylmethanone mesylate], the “cell viability of blasts from AML patients” value in the data set with blasts from AML patients is “reduce the cell viability”. Further, in the data set with lymphocytes, the viability of lymphocytes entry was “unaffected” and the “dose at which lymphocytes were affected (highest dose tested)” value was 0.05 mM. Also, in data set [1] (18 h), the “most sensitive AML cell line” value is “HL60 was the most sensitive”; the “cell viability of KG1 and HL60 cell lines as compared to untreated control cells” value was “significantly reduced”. Moreover, in data set [1], the “concentration from which the cell viability decrease occurs with statistically significant data” value was no less than 500 µM. The viability of granulocytes result in the data set on Granulocytes is reported as “unaffected”. Moreover, in data set [2] (50 uM, bone marrow of MM patients), the “decrease in cell viability of MPCs as compared to control (vehicle-treated) cells” value is listed as “up to 85%”. The “cell viability of hematopoietic stem cells (CD34+)” value in data set [3] was “remained unaffected”.
